# Laboratory results taken from patent US20100105655A1, “NOVEL COMPOUNDS 515” (ASTRAZENECA AB, priority 2008, published 2010).
# Target: T1, IGFR kinase (Homo sapiens, UniProt P08069)
# T1 construct: purchased Millipore
# Experiment: Enzyme assay (c), IGFR kinase, Caliper LabChip
# Type: biochemical
# Conditions: 30 nM IGFR kinase, 6 uM ATP, 3 uM peptide mix; read-out: IGFR IC50
# T1 sequence (P08069 31-1367): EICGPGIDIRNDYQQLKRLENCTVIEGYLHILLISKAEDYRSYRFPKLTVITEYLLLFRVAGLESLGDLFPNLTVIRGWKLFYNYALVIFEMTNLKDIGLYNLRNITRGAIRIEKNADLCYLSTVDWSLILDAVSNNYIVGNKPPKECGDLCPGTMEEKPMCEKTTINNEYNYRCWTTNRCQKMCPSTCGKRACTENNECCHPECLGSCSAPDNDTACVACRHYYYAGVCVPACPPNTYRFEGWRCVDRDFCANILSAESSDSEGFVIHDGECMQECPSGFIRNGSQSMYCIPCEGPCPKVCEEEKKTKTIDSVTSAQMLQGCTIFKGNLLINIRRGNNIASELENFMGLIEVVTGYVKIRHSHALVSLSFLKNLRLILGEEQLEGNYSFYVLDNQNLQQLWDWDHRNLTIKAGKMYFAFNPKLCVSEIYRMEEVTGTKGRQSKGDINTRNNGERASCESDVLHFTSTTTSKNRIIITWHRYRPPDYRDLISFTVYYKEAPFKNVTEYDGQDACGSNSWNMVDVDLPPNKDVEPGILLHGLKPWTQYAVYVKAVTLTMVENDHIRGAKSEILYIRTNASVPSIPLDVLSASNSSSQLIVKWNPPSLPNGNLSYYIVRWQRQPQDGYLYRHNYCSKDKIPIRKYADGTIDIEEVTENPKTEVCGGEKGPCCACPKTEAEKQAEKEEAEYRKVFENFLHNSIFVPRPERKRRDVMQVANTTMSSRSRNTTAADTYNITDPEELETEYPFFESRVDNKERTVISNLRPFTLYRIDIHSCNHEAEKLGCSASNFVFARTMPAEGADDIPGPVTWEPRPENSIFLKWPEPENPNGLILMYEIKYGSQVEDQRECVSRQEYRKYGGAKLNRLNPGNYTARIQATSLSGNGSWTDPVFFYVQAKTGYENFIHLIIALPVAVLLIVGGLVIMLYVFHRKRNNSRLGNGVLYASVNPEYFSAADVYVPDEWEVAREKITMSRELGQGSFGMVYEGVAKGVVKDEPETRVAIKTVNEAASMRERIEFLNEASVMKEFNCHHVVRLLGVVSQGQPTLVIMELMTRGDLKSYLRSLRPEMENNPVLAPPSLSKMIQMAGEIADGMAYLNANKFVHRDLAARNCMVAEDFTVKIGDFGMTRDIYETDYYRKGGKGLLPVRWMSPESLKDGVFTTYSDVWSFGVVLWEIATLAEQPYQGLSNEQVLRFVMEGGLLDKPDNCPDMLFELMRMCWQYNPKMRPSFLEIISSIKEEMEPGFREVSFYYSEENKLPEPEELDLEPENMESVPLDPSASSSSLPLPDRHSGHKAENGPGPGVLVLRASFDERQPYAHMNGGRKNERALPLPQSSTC
row,SMILES,IC50
1,"COc1cc(C2CCN(C(=O)CO)CC2)ccc1Nc1ncc(Cl)c(-c2cnc3ccccn23)n1 [Example 28.5, 1-[4-[4-[(5-chloro-4-imidazo[1,2-a]pyridin-3-yl-pyrimidin-2-yl)amino]-3-methoxy-phenyl]-1-piperidyl]-2-hydroxy-ethanone]",4 nM
2,"COc1ccc(N2CC[C@@H](N(C)C)C2)cc1Nc1ncc(Cl)c(-c2cnc3ccccn23)n1 [Example 3.13, 5-chloro-N-[5-[(3R)-3-dimethylaminopyrrolidin-1-yl]-2-methoxy-phenyl]-4-imidazo[1,2-a]pyridin-3-yl-pyrimidin-2-amine]",60 nM
3,"COc1cc(N2CC(C)N(C(C)=O)C(C)C2)ccc1Nc1ncc(Cl)c(-c2cnc3ccccn23)n1 (centres unmarked) [Example 3.31, 1-[4-[4-[(5-chloro-4-imidazo[1,2-a]pyridin-3-yl-pyrimidin-2-yl)amino]-3-methoxy-phenyl]-2,6-dimethyl-piperazin-1-yl]ethanone]",11 nM
4,"COc1cc(N2CCN(C(C)(C)CO)CC2)ccc1Nc1ncc(C)c(-c2cnn3ccccc23)n1 [Example 231, 2-[4-[3-methoxy-4-[(5-methyl-4-pyrazolo[1,5-a]pyridin-3-yl-pyrimidin-2-yl)amino]phenyl]piperazin-1-yl]-2-methyl-propan-1-ol]",20 nM
5,"COc1cc(N2CCN(C(=O)C3CC3)CC2)ccc1Nc1ncc(Cl)c(-c2cnc3ccccn23)n1 [Example 43, [4-[4-[(5-chloro-4-imidazo[1,2-a]pyridin-3-ylpyrimidin-2-yl)amino]-3-methoxyphenyl]piperazin-1-yl]-cyclopropylmethanone]",10 nM
6,"COc1cc(CN(C)CCO)ccc1Nc1ncc(Cl)c(-c2cnc3ccccn23)n1 [Example 21.2, 2-[[4-[(5-chloro-4-imidazo[1,2-a]pyridin-3-yl-pyrimidin-2-yl)amino]-3-methoxy-phenyl]methyl-methyl-amino]ethanol]",37 nM
7,"COc1ccc(N2CCCC2)cc1Nc1ncc(Cl)c(-c2cnc3ccccn23)n1 [Example 3.8, 5-chloro-4-imidazo[1,2-a]pyridin-3-yl-N-(2-methoxy-5-pyrrolidin-1-yl-phenyl)pyrimidin-2-amine]",309 nM
8,"COc1cc(N2CC3CN(C(=O)[C@@H](N)CO)CC(C2)O3)ccc1Nc1ncc(Cl)c(-c2cnc3c(F)cccn23)n1 [Example 210, (2S)-2-amino-1-[7-[4-[[5-chloro-4-(8-fluoroimidazo[1,2-a]pyridin-3-yl)pyrimidin-2-yl]amino]-3-methoxy-phenyl]-9-oxa-3,7-diazabicyclo[3.3.1]nonan-3-yl]-3-hydroxy-propan-1-one]",36 nM
9,"COc1cc(OC2CN(C(=O)[C@@H](C)OC)C2)ccc1Nc1ncc(Cl)c(-c2cnc3ccccn23)n1 [Example 27.4, (2R)-1-[3-[4-[(5-chloro-4-imidazo[1,2-a]pyridin-3-yl-pyrimidin-2-yl)amino]-3-methoxy-phenoxy]azetidin-1-yl]-2-methoxy-propan-1-one]",24 nM
10,"COc1cc(N2CCN(C(C)=O)CC2)ccc1Nc1ncc(C2CC2)c(-c2cnc3c(F)cccn23)n1 [Example 201, 1-[4-[4-[[5-cyclopropyl-4-(8-fluoroimidazo[1,2-a]pyridin-3-yl)pyrimidin-2-yl]amino]-3-methoxy-phenyl]piperazin-1-yl]ethanone]",88 nM
11,"COc1cc(OC2CN(CCO)C2)ccc1Nc1ncc(Cl)c(-c2cnc3ccccn23)n1 [Example 64, 2-[3-[4-[(5-chloro-4-imidazo[1,2-a]pyridin-3-yl-pyrimidin-2-yl)amino]-3-methoxy-phenoxy]azetidin-1-yl]ethanol]",19 nM
12,"COc1cc(N2CCN(C(C)(C)CO)CC2)ccc1Nc1ncc(Cl)c(-c2cnc3ccc(F)cn23)n1 [Example 259, 2-[4-[4-[[5-chloro-4-(6-fluoroimidazo[1,2-a]pyridin-3-yl)pyrimidin-2-yl]amino]-3-methoxy-phenyl]piperazin-1-yl]-2-methyl-propan-1-ol]",4 nM
13,"COc1cc(N2CCN(CC(=O)N(C)CCO)CC2)ccc1Nc1ncc(Cl)c(-c2cnc3ccccn23)n1 [Example 67, 2-[4-[4-[(5-chloro-4-imidazo[1,2-a]pyridin-3-yl-pyrimidin-2-yl)amino]-3-methoxy-phenyl]piperazin-1-yl]-N-(2-hydroxyethyl)-N-methyl-acetamide]",7 nM
14,"COc1cc(N2CCN(S(=O)(=O)N(C)C)CC2)ccc1Nc1ncc(F)c(-c2cnc3ccccn23)n1 [Example 74, 4-[4-[(5-fluoro-4-imidazo[1,2-a]pyridin-3-yl-pyrimidin-2-yl)amino]-3-methoxy-phenyl]-N,N-dimethyl-piperazine-1-sulfonamide]",42 nM
15,"COc1cc(C2CCN(CC(=O)N(C)C)CC2)ccc1Nc1ncc(Cl)c(-c2cnc3c(F)cccn23)n1 [Example 216, 2-[4-[4-[[5-chloro-4-(8-fluoroimidazo[1,2-a]pyridin-3-yl)pyrimidin-2-yl]amino]-3-methoxy-phenyl]-1-piperidyl]-N,N-dimethyl-acetamide]",2 nM
16,"COc1ccc(OC[C@@H]2CCCN2)cc1Nc1ncc(Cl)c(-c2cnc3ccccn23)n1 [Example 6.3, 5-chloro-4-imidazo[1,2-a]pyridin-3-yl-N-[2-methoxy-5-[[(2S)-pyrrolidin-2-yl]methoxy]phenyl]pyrimidin-2-amine]",18 nM
17,"COc1cc(C2CCN(C(=O)[C@@H](C)O)CC2)ccc1Nc1ncc(Cl)c(-c2cnc3ccc(F)cn23)n1 [Example 246, (2R)-1-[4-[4-[[5-chloro-4-(6-fluoroimidazo[1,2-a]pyridin-3-yl)pyrimidin-2-yl]amino]-3-methoxyphenyl]-1-piperidyl]-2-hydroxy-propan-1-one]",4 nM
18,"COc1cc(C2CCN(C(=O)N(C)C)CC2)ccc1Nc1ncc(Cl)c(-c2cnc3ccccn23)n1 [Example 57, 4-[4-[(5-chloro-4-imidazo[1,2-a]pyridin-3-yl-pyrimidin-2-yl)amino]-3-methoxy-phenyl]-N,N-dimethyl-piperidine-1-carboxamide]",6 nM
19,"CNCC(=O)N1CCN(c2ccc(Nc3ncc(Cl)c(-c4cnn5ccccc45)n3)c(OC)c2)CC1 [Example 133, 1-[4-[4-[(5-chloro-4-pyrazolo[1,5-a]pyridin-3-yl-pyrimidin-2-yl)amino]-3-methoxy-phenyl]piperazin-1-yl]-2-methylamino-ethanone]",3 nM
20,"COc1cc(N2CCN(C(C)(C)CO)CC2)ccc1Nc1ncc(C)c(-c2cnc3ccc(F)cn23)n1 [Example 260, 2-[4-[4-[[4-(6-fluoroimidazo[1,2-a]pyridin-3-yl)-5-methyl-pyrimidin-2-yl]amino]-3-methoxy-phenyl]piperazin-1-yl]-2-methyl-propan-1-ol]",11 nM
21,"CNC(=O)CN(C)c1ccc(Nc2ncc(Cl)c(-c3cnc4c(F)cccn34)n2)c(OC)c1 [Example 226, 2-[4-[[5-chloro-4-(8-fluoroimidazo[1,2-a]pyridin-3-yl)pyrimidin-2-yl]amino]-3-methoxy-N-methyl-anilino]-N-methyl-acetamide]",33 nM
22,"COc1ccc(N2CC[C@H](N(C)C)C2)cc1Nc1ncc(Cl)c(-c2cnc3ccccn23)n1 [Example 3.17, 5-chloro-N-[5-[(3S)-3-dimethylaminopyrrolidin-1-yl]-2-methoxy-phenyl]-4-imidazo[1,2-a]pyridin-3-yl-pyrimidin-2-amine]",125 nM
23,COc1cc(C2CN(C(=O)[C@H](C)O)C2)ccc1Nc1ncc(Cl)c(-c2cnn3ccccc23)n1 [Example 135A],11 nM
